Data: article PMC10747975, “Synthesis, Antimalarial, Antileishmanial, and Cytotoxicity Activities and Preliminary In Silico ADMET Studies of 2-(7-Chloroquinolin-4-ylamino)ethyl Benzoate Derivatives” (Pharmaceuticals, 2023)
Values joined by “and” are separate entries in the source; they are usually repeats but may differ in a detail not shown here. Equal entries are not always repeated. “Also recorded” adds a separate entry of the source. Where two headings read alike, the source gives them in different places.

Columns and labels:
β-hematin formation = assay: Inhibition of β-hematin formation; assay type: biochemical; conditions: n = 3, read-out: IC50: Half maximal inhibitory concentration (βHF)
Procedure: The β-hematin (β-H) formation assay was performed as described previously. In 96-well microplates, hemin chloride solution (50 μL, 4 mM) was dissolved in dimethyl sulfoxide (DMSO) (5 mg mL^−1). We dissolved the compounds in DMSO and added different concentrations (100–5 mM) to the test wells (50 μL). As controls, 50 μL of water and 50 μL of DMSO were used. Experiments were conducted in triplicate. In order to generate β-H, acetate buffer (100 μL, 0.2 M, pH 4.4) was used. After 48 h at 37 °C, the plates were centrifuged (4000 RPM for 15 min, IEC-CENTRA, MP4R) (International Equipment Company, MA, USA). After discarding the supernatants, the pellet was washed twice with DMSO (200 μL) and dissolved in NaOH (200 μL, 0.2 N). […] The outcomes are expressed as percentages of inhibition of β-H formation.

[1] = In vitro toxicity on mouse red blood cells (haemolysis); assay type: cell-based; conditions: mouse RBCs, 37 °C
Procedure: To evaluate the in vitro toxicological effects of the compounds, we measured the haemoglobin released into the supernatant fraction of lysed red blood cells (RBCs). […] To obtain 100% RBCs, mouse blood was spun down at 800 g for 10 min and washed thrice with saline solution. […] RBCs were lysed in 1% saponin solution and were used as a positive control and a PBS solution as a negative control. The percentage of haemolysis was calculated using the formula: % Haemolysis = [(AT − AN)/(AP − AN)] × 100, where AT = mean absorbance of the test compound; AN = mean absorbance of the negative control; AP = mean absorbance of the positive control.

Plasmodium berghei ANKA = assay: Four-day suppressive test in P. berghei-infected mice; assay type: in vivo; conditions: for Survival: number of mice that survived until Day 30 post-infection/total number of mice in the group / %P: percent parasitaemia (± SEM): 25 mg/kg ip; for Sd: survival days (± SEM): P. berghei-infected BALB/c mice, 25 mg/kg ip once daily for four days; for Sd: survival days (± SEM) / %P: percent parasitaemia (± SEM): n = 6; for %P: percent parasitaemia (± SEM): fourth day post-infection
Procedure: The compounds 4c and 4e were evaluated in mice infected with P. berghei ANKA, a strain of murine malaria susceptible to CQ(DPh). The compounds 4c and 4e were assessed on the fourth day post-infection by evaluating their ability to increase mouse survival and reduce parasitaemia in vivo compared to untreated controls. The compounds 4c, 4e (25 mg/kg), or CQ (25 mg/kg) were administered intraperitoneally (ip) once daily in mice following previously reported protocols. The Institute of Immunology Bioethical Committee approved the study (AS 161019). We followed the guidelines for Laboratory Animal Research of the National Research Council (ILAR).
For the experiments, male BALB/c mice, 18–22 g, were fed a commercial pellet diet under controlled conditions approved by the Institute of Immunology’s Ethics Committee. The animals were infected with the rodent malaria ANKA strain of Plasmodium berghei; 1 × 10^6 infected erythrocytes diluted in phosphate-buffered saline (PBS; 10 mM, pH 7.4, 0.1 mL) were injected […] into mice. Microscopic examination of Giemsa-stained smears was used to monitor parasitaemia.
Plasmodium berghei-infected red blood cells were injected into the caudal vein of BALB/c mice (18–23 g) (n = 6). Within two hours of infection, the active compounds from the in vitro test began to be administered (inhibition of β-H formation). Following dissolution in DMSO (0.1 M), the compounds were diluted with 2% saline-Tween 20 solution. The compounds (dose 25 mg kg^−1) were administered ip for four days. Giemsa-stained smears were examined on the fourth day to determine the parasite load. As a positive control, CQ (25 mg kg^−1) in DMSO (0.1 M) diluted with 2% saline-Tween 20 solution was used. A control group of mice infected with P. berghei incubated with saline solution was used to determine survival times. The results are expressed as a percentage of parasitaemia, and the survival curve was constructed based on the number of days of survival after treatment with the compound over that of mice infected without treatment.

[2] = test system: Leishmania mexicana promastigotes; assay: L. mexicana promastigote growth inhibition; assay type: cell-based; conditions: growth/viability, Bel 21 strain
Procedure: The growth of L. mexicana was carried out as previously reported. L. mexicana (Bel 21 strain) promastigotes were cultured in liver infusion-tryptose (LIT) medium supplemented with 10% foetal bovine serum using continuous agitation at 29 °C, as reported previously. A growth curve was performed to evaluate the susceptibility of parasites to the different compounds at different concentrations. Parasites were counted daily using a Neubauer chamber. […] The final concentration of sterile DMSO in the parasite culture was 0.1%, not affecting the viability. […] FCCP (2 µM) was used as a positive control.

[3] = test system: acidocalcisomes of Leishmania mexicana; assay: Acidocalcisome function (acridine orange accumulation); assay type: cell-based; conditions: results not shown
Excerpt: Considering this issue, we investigate another possible action of these compounds in these parasites. The acidocalcisomes are another relevant organelle characteristic of these trypanosomatids directly involved in bioenergetics and intracellular Ca^2+ regulation. These are acidic vacuoles rich in calcium and phosphates, engaged in the production and storage of pyrophosphates, and alternative energetic currency in addition to ATP, well known in trypanosomatids. For this reason, we also tested the possible effect of the compounds 4b, 4c, and 4e on acidocalcisomes, using acridine orange accumulation as a well-recognized method. This compound is released to the medium after parasite alkalization, denoting the loss of this organelle function. […] In this context, it is interesting to mention that in trypanosomatids, the disruption of intracellular Ca^2+ homeostasis drives parasite death, thus proposing that alteration of this function could be a rational therapeutic target.

[4] = test system: mitochondrial electrochemical membrane potential of Leishmania mexicana promastigotes; assay: Mitochondrial membrane potential of L. mexicana (rhodamine 123); assay type: cell-based; conditions: compounds 10 μM; b32 compares 4b, 4e with 4c
Procedure: The effect of different compounds on the mitochondrial membrane potential of L. mexicana promastigotes was evaluated using rhodamine 123, a fluorescent dye distributed inside mitochondria according to the electrochemical membrane potential, as reported previously. Briefly, 10^8 parasites were obtained by centrifugation at 600× g for 2 min and washed in phosphate-buffered saline solution (PBS) plus 1% glucose. The pellet was resuspended in the same buffer but in the presence of 20 µM rhodamine 123 for 45 min at 29 °C in the dark with mild agitation. Then, parasites were washed twice, resuspended in the same buffer, and transferred into a stirred cuvette. Measurements (excitation wavelength [λex], 488 nm; emission wavelength [λem], 530 nm) were made in a Hitachi 7000 spectrofluorometer at 29 °C (Hitachi High-Tech Corporation, Tokyo, Japan). FCCP (2 µM) was used as a positive control.

[5] = test system: Leishmania mexicana promastigotes; parameters: method as in PMID 27458218; conditions: reference compound; cited from earlier work
[6] = 2% suspension of mouse red blood cells

## COc1cc(OC)c(C(=O)OCCNc2ccnc3cc(Cl)ccc23)cc1OC [4f, 2-(7-Chloroquinolin-4-ylamino)ethyl-2,4,5-trimethoxybenzoate]
β-hematin formation
  IC50: 3.29 ± 0.23 µM

## COc1cccc(C(=O)OCCNc2ccnc3cc(Cl)ccc23)c1OC [4c, 2-(7-Chloroquinolin-4-ylamino)ethyl-2,3-dimethoxybenzoate]
[1]; [6]
  hemolysis at 45 min, 1 mM: 4.73 ± 0.12%
Plasmodium berghei ANKA
  Survival: number of mice that survived until Day 30 post-infection/total number of mice in the group: 0/6
  %P: percent parasitaemia (± SEM): 9.86 ± 1.55 %
Plasmodium berghei ANKA; 25 mg/kg
  Sd: survival days (± SEM): 16.7 ± 2.16 days and 16.71 ± 2.16 days
β-hematin formation
  IC50: 2.1 ± 0.48 µM
[2]; Leishmania mexicana
  IC50: < 10 µM
[2]
  IC50: 8.46 ± 1.86 µM
[3]
  Effect on acidocalcisome functionality: none of these compounds showed any effect
[4]
  Effect on mitochondrial electrochemical membrane potential (rhodamine 123 fluorescence release): rapid increase in the fluorescence; also recorded: lower

## COc1ccccc1C(=O)OCCNc1ccnc2cc(Cl)ccc12 [4a, 2-(7-Chloroquinolin-4-ylamino)ethyl-2-methoxybenzoate]
β-hematin formation
  IC50: 4.16 ± 0.61 µM

## COc1ccc(C(=O)OCCNc2ccnc3cc(Cl)ccc23)c(OC)c1 [4d, 2-(7-Chloroquinolin-4-ylamino)ethyl-2,4-dimethoxybenzoate]
β-hematin formation
  IC50: 8.59 ± 0.01 µM

## CC(C)(C)c1ccc(C(=O)OCCNc2ccnc3cc(Cl)ccc23)cc1 [4l, 2-(7-Chloroquinolin-4-ylamino)ethyl-4-tert-butylbenzoate]
β-hematin formation
  IC50: 3.57 ± 0.22 µM

## CCN(CC)CCCC(C)Nc1ccnc2cc(Cl)ccc12 (stereo not drawn) [CQ, chloroquine, reference compound]
[1]
  hemolysis at 45 min, 1 mM: 2.07 ± 0.17%
Plasmodium berghei ANKA
  Survival: number of mice that survived until Day 30 post-infection/total number of mice in the group: 6/6

## O=C(OCCNc1ccnc2cc(Cl)ccc12)c1cccc(Cl)c1 [4h, 2-(7-Chloroquinolin-4-ylamino)ethyl-3-chlorobenzoate]
β-hematin formation
  IC50: 6.85 ± 0.94 µM

## Cc1cc(C)cc(C(=O)OCCNc2ccnc3cc(Cl)ccc23)c1 [4j, 2-(7-Chloroquinolin-4-ylamino)ethyl-3,5-dimethylbenzoate]
β-hematin formation
  IC50: 3.16 ± 0.38 µM

## COc1ccc(C(=O)OCCNc2ccnc3cc(Cl)ccc23)cc1 [4b, 2-(7-Chloroquinolin-4-ylamino)ethyl-4-methoxybenzoate]
β-hematin formation
  IC50: 3.09 ± 0.27 µM
[2]; Leishmania mexicana
  IC50: < 10 µM
[2]
  IC50: 8.09 ± 1.47 µM
[3]
  Effect on acidocalcisome functionality: none of these compounds showed any effect
[4]
  Effect on mitochondrial electrochemical membrane potential (rhodamine 123 fluorescence release): rapid increase in the fluorescence; also recorded: significantly higher

## O=C(OCCNc1ccnc2cc(Cl)ccc12)c1ccccc1F [4i, 2-(7-Chloroquinolin-4-ylamino)ethyl-2-fluorobenzoate]
β-hematin formation
  IC50: 4.01 ± 0.09 µM

## CCN(CC)CCCC(C)Nc1ccnc2cc(Cl)ccc12 (stereo not drawn) [CQ(DPh), chloroquine bisphosphate, reference compound]
Plasmodium berghei ANKA
  Sd: survival days (± SEM): 30 days
  %P: percent parasitaemia (± SEM): 0.28 ± 0.15%

## Cc1ccc([N+](=O)[O-])c(C(=O)OCCNc2ccnc3cc(Cl)ccc23)c1 [4k, 2-(7-Chloroquinolin-4-ylamino)ethyl-5-methyl-2-nitrobenzoate]
β-hematin formation
  IC50: 4.27 ± 0.67 µM

## COc1ccc(OC)c(C(=O)OCCNc2ccnc3cc(Cl)ccc23)c1 [4e, 2-(7-Chloroquinolin-4-ylamino)ethyl-2,5-dimethoxybenzoate]
[1]; [6]
  hemolysis at 45 min, 1 mM: 4.17 ± 0.21%
Plasmodium berghei ANKA
  Survival: number of mice that survived until Day 30 post-infection/total number of mice in the group: 0/6
  %P: percent parasitaemia (± SEM): 12.05 ± 2.36 %
Plasmodium berghei ANKA; 25 mg/kg
  Sd: survival days (± SEM): 14.4 ± 1.20 days and 14.43 ± 1.20 days
β-hematin formation
  IC50: 1.81 ± 0.83 µM
[2]; Leishmania mexicana
  IC50: < 10 µM
[2]
  IC50: 5.67 ± 2.15 µM
[3]
  Effect on acidocalcisome functionality: none of these compounds showed any effect
[4]
  Effect on mitochondrial electrochemical membrane potential (rhodamine 123 fluorescence release): rapid increase in the fluorescence; also recorded: significantly higher

## O=C(OCCNc1ccnc2cc(Cl)ccc12)c1ccc(C(F)(F)F)cc1 [4m, 2-(7-Chloroquinolin-4-ylamino)ethyl-4-(trifluoromethyl)benzoate]
β-hematin formation
  IC50: 3.24 ± 0.15 µM

## OCCNc1ccnc2cc(Cl)ccc12 [compound 2, 2-(7-Chloroquinolin-4-ylamino)ethanol]
β-hematin formation
  IC50: 5.06 ± 0.31 µM

## COc1cc(C(=O)OCCNc2ccnc3cc(Cl)ccc23)cc(OC)c1OC [4g, 2-(7-Chloroquinolin-4-ylamino)ethyl-3,4,5-trimethoxybenzoate]
β-hematin formation
  IC50: 2.98 ± 0.17 µM

## CC(C)=CCC/C(C)=C/CNCCNC1C2CC3CC(C2)CC1C3 (stereo not drawn) [SQ109]
[5]
  IC50: 0.53 ± 0.06 µM
